We go through one molecule from US12344572B2, “Cationic lipids and transfection methods” (Factor Bioscience Inc., priority 2019, dated 2025).

Series [1] has as its system primary human epidermal keratinocytes. In words: Transfection of primary human epidermal keratinocytes with GFP-encoding RNA complexed with lipid, in 100% FBS. Format: cell-based.
In series [2] the test system is human peripheral blood mononuclear cells (hPBMCs). In words: Transfection of human peripheral blood mononuclear cells with GFP-encoding RNA complexed with lipid. The following applies: images 16 hours following transfection; both lipid-to-RNA mass ratios tested. Format: cell-based.
Series [3] concerns confluent layer of primary human epidermal keratinocytes. Kind of series: Transfection of a confluent layer of primary human epidermal keratinocytes with GFP-encoding RNA. Format: cell-based. The conditions noted are these: images 24 hours following transfection; both lipid-to-RNA mass ratios tested.
The subject of series [4] is primary human adult dermal fibroblasts. In words: Transfection of primary human adult dermal fibroblasts with GFP-encoding RNA. Format: cell-based. The conditions noted are these: images 16 hours following transfection; both lipid-to-RNA mass ratios tested.
Series [5] relates to primary human epidermal keratinocytes. In words: Gene editing of keratinocytes with RNA encoding gene-editing proteins, T7E1 endonuclease digestion. Format: cell-based. The conditions noted are these: RNA encoding gene-editing proteins complexed with lipid.
Series [6] relates to human epidermal keratinocytes. Kind of series: GFP mRNA delivery to keratinocytes in serum-free medium or 50% FBS. Format: cell-based. The conditions noted are these: 20,000 keratinocytes, 0% FBS or 50% FBS, images 16 hours following transfection; DLinDHS at 2.5 μg/μg lipid-to-RNA; LNPs 300 ng final mRNA.
For series [7], the system named is primary human dermal fibroblasts. Kind of series: Time-lapse fluorescence imaging of labeled RNA / labeled lipid uptake in dermal fibroblasts. Format: cell-based.
The nature of series [8]: Particle size of DLinDHS/RNA complexes by dynamic light scattering. Format: physicochemical. The conditions noted are these: DLinDHS/RNA complexes formed in aqueous mRNA solution with varied sodium chloride concentration.
Series [9] is described as follows: Zeta potential of DLinDHS/RNA complexes versus buffer pH. Format: physicochemical.
The next series deals with RNase A. Kind of series: Protection of mRNA from RNase A degradation, GFP readout in keratinocytes. Format: cell-based. The conditions noted are these: DLinDHS/mRNA complexes treated with RNase A after complexation, 2.5 μg/μg, 20,000 keratinocytes in serum-free medium.
The subject of the next series is Rat. In words: mRNA delivery in rat by intradermal injection, anti-GFP histology. Format: in vivo. The conditions noted are these: GFP mRNA complexed at 2.5 μg/μg, necropsy 48 hours.
In a further series the test system is human subject. Kind of series: In vivo mRNA delivery to a human subject by intradermal injection, confocal fluorescence microscopy of biopsy. The conditions noted are these: human male, ventral forearm, 400 ng RNA in 20 μL, 2.5 μg/μg, biopsy after 48 hours.

As for `CCCCC/C=C\C/C=C\CCCCCCCCN(CCCCN(CCCCCCCC/C=C\C/C=C\CCCCC)CC(O)CN)CC(O)CN` (centres unmarked) [DHDLinS, N^1,N^4-dilinoleyl-N^1,N^4-di-(2-hydroxy-3-aminopropyl)-diaminobutane], in series [1] (400 ng per well GFP RNA, complexation in DMEM, transfection in 100% FBS, images 8 hours after transfection, lipid without acetone purification), the “transfection of keratinocytes (GFP fluorescence)” value is listed as “transfected with high efficiency”. Besides, in [1] (DHDLinS purified by extraction with acetone, keratinocytes, images 16 hours following transfection), the “lipid-to-RNA mass ratios at which minimal increase in fluorescence signal was observed” value is on record as “greater than 2 μg/μg”. The “time after transfection at which a fluorescent signal was detected” value in series [1] (experiment of FIG. 1, keratinocytes, 100% FBS) is reported as “one”. Moreover, the “transfection of hPBMCs (GFP fluorescence)” value in series [2] is recorded as “effectively transfected hPBMCs at both lipid-to-RNA mass ratios tested”. For the same molecule, the “transfection of confluent keratinocytes (GFP fluorescence)” value in series [3] is “effectively transfected”. The “transfection of adult dermal fibroblasts (GFP fluorescence)” value in [4] is on record as “effectively transfected”. Besides, in series [5], the gene-editing efficiency result is recorded as “gene edited at high efficiency”. Also, the “mRNA delivery in serum (GFP fluorescence)” value in series [6] is “efficiently delivers mRNA in 50% serum”. For the same molecule, in series [7] (100 ng GFP mRNA, 2.5 μg/μg, 20,000 fibroblasts in 10% FBS), the “time after transfection at which protein expression begins” value is not above 2.5 h. For the same molecule, the “time to detection of mRNA in cytoplasm after contact with lipoplexes” value in [7] (100 ng GFP mRNA, 20% Cy5-labeled, 2.5 μg/μg, 20,000 fibroblasts in 10% FBS) was not above 50 min. In [7] (BODIPY-labeled DLinDHS (10:1), 200 ng GFP mRNA, fibroblasts), the “contact of labeled lipid with cells” value is “contacts cells within minutes after transfection”. In addition, the “particle size of lipoplex (Z-average, DLS)” value in series [8] is given as “ionic-strength dependent”. In series [9] (DLinDHS/RNA lipoplexes diluted into 20 mM citrate pH 3.0-6.0 or 20 mM phosphate pH 7.4), the “dependence of zeta potential on pH” value was “pH-dependent”. Besides, the zeta potential in [9] (DLinDHS/RNA lipoplexes, 2.5 μg/μg, 20 mM phosphate, pH 7.4) is −22.1 mV. Further, the “protection of complexed RNA from RNase A degradation (GFP expression)” value in the series on RNase A is listed as “protected from degradation”. Moreover, the “reporter protein (GFP) expression in tissue” value in the series on Rat is “localized expression in the dermal layer”. Moreover, the “reporter protein (RFP) expression in skin” value in the series with human subject is “RFP-positive cells that have a morphology consistent with that of fibroblasts”.
